# Measurements: US12343326B2, “Psychoactive medicines and their use for treating psychiatric and neurological conditions and disorders” (Transcend Therapeutics, Inc., priority 2021, dated 2025)
# What was measured:
# Test in all cases: β-arrestin based GPCR screen (PathHunter / GPCRmax), antagonist mode
# [1] = target: 168 GPCRs (Homo sapiens, UniProt P41231)
# [2] = target: 168 GPCRs (Homo sapiens, UniProt Q9HB89); details: NMU1R
# [3] = target: 168 GPCRs (Homo sapiens, UniProt P35346)
# [4] = target: 168 GPCRs (Homo sapiens, UniProt P21731); details: TBXA2R
# [5] = target: 168 GPCRs (Homo sapiens, UniProt P51685); details: CCR8, Antagonist
# [6] = target: 168 GPCRs (Homo sapiens, UniProt P28336); details: NMBR
# [7] = target: 168 GPCRs (Homo sapiens, UniProt Q9H3N8)
# [8] = target: 168 GPCRs (Homo sapiens, UniProt P30556); details: AGTR1, Antagonist
# [9] = target: 168 GPCRs (Homo sapiens, UniProt P32245); details: MC4R
# [10] = target: T1, 168 GPCRs (Homo sapiens, UniProt Q96RI0)
# T1 sequence (Q96RI0 18-385): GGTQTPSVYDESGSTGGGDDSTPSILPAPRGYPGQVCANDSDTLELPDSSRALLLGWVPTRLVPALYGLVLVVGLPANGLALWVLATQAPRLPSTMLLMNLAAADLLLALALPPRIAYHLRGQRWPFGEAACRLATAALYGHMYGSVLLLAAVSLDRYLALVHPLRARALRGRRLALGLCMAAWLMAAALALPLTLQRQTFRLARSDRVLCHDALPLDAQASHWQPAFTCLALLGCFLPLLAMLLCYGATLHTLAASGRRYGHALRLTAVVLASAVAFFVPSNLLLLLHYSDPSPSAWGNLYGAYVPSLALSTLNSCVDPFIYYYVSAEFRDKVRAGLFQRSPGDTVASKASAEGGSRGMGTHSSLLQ
# [11] = target: 168 GPCRs (Homo sapiens, UniProt P23945); details: FSHR
# [12] = target: 168 GPCRs (Homo sapiens, UniProt P49019); details: GPR109B
# [13] = target: 168 GPCRs (Homo sapiens, UniProt Q96LB2)
# [14] = target: 168 GPCRs (Homo sapiens, UniProt Q9UKP6)
# [15] = target: T2, 168 GPCRs (Homo sapiens, UniProt P08173); details: CHRM4, Antagonist
# T2 sequence (P08173 1-479): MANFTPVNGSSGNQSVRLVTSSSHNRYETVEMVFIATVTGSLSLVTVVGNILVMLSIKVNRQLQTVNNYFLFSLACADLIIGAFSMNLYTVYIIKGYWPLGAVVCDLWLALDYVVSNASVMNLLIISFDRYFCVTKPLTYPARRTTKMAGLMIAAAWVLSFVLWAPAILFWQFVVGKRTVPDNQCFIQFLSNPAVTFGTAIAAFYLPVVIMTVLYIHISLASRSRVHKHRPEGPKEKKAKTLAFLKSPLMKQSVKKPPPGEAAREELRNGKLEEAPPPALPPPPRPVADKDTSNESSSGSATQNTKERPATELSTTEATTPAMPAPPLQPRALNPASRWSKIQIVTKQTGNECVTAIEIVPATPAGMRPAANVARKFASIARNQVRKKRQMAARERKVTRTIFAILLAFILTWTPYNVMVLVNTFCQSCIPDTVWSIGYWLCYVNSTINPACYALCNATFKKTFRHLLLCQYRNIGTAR
# [16] = target: 168 GPCRs (Homo sapiens, UniProt P21453)
# [17] = target: 168 GPCRs (Homo sapiens, UniProt P21728)
# 168 GPCRs (Homo sapiens, UniProt P21728), sequence (P21728 whole entry): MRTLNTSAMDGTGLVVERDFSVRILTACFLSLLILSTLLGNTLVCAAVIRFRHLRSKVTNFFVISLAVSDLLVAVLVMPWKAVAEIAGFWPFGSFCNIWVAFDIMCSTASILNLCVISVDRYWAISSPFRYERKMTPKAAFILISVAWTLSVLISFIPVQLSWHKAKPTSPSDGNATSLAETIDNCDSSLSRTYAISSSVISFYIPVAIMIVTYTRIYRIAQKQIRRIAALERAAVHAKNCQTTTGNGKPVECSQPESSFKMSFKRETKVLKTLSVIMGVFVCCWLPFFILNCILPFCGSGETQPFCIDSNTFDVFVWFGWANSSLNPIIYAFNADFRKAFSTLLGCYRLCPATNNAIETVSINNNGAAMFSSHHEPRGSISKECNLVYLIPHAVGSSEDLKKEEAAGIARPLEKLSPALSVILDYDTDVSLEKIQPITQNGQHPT
# 168 GPCRs (Homo sapiens, UniProt P23945), sequence (P23945 18-695): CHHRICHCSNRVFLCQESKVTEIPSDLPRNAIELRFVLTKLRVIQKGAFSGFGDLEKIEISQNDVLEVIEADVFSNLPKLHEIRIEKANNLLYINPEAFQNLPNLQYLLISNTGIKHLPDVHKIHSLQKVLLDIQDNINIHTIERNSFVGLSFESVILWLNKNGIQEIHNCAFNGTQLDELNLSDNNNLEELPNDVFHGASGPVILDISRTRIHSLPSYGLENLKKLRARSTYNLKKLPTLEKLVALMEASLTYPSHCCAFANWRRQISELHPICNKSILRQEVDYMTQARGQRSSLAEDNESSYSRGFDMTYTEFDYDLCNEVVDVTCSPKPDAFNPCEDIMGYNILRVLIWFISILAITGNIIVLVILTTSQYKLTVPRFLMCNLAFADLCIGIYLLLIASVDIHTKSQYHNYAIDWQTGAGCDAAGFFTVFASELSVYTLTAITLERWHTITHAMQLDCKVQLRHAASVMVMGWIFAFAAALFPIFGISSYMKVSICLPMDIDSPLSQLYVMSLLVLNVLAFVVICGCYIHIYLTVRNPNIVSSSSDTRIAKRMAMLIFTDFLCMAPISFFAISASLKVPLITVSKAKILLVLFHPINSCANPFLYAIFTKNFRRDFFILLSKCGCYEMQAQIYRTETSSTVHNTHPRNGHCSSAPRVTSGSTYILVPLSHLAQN
# 168 GPCRs (Homo sapiens, UniProt Q96LB2), sequence (Q96LB2 whole entry): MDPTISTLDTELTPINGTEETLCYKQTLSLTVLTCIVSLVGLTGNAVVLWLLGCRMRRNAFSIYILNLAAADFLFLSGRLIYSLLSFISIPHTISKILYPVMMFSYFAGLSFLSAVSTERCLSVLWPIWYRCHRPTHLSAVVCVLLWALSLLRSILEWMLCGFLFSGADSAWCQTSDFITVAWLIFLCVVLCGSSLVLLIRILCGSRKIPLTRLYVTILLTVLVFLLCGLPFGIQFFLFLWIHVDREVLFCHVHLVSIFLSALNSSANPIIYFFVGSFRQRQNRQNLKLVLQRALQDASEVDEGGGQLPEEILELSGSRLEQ
# 168 GPCRs (Homo sapiens, UniProt P49019), sequence (P49019 whole entry): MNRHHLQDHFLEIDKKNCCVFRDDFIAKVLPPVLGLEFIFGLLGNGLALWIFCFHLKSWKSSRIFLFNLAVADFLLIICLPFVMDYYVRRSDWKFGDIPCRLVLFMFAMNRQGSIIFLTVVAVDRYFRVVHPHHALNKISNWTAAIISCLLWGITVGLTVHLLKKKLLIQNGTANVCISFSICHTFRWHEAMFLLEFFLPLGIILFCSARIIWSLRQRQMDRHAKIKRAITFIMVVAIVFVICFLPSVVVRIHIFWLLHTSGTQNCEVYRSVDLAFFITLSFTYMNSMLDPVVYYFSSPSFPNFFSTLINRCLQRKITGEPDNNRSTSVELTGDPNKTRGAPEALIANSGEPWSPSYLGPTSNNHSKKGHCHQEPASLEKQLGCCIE
# 168 GPCRs (Homo sapiens, UniProt P21731), sequence (P21731 whole entry): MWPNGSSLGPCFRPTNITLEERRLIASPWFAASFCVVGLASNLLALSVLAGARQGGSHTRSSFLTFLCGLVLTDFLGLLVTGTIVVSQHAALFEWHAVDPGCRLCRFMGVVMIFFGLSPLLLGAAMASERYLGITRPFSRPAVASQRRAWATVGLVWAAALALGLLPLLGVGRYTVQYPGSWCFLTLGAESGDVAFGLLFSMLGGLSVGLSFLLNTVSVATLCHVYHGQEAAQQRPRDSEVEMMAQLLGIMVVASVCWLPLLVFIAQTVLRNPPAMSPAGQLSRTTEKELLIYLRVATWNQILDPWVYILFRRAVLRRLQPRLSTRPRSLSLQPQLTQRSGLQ
# 168 GPCRs (Homo sapiens, UniProt P21453), sequence (P21453 whole entry): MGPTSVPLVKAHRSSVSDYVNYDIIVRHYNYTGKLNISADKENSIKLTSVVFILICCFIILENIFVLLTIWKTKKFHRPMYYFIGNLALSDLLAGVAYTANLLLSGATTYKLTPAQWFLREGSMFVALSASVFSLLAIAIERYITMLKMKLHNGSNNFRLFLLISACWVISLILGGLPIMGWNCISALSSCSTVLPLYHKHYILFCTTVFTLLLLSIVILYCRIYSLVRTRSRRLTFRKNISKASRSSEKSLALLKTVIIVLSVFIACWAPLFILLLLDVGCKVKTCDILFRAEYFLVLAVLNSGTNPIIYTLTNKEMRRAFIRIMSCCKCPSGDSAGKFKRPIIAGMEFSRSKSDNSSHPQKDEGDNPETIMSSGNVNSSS
# 168 GPCRs (Homo sapiens, UniProt P32245), sequence (P32245 whole entry): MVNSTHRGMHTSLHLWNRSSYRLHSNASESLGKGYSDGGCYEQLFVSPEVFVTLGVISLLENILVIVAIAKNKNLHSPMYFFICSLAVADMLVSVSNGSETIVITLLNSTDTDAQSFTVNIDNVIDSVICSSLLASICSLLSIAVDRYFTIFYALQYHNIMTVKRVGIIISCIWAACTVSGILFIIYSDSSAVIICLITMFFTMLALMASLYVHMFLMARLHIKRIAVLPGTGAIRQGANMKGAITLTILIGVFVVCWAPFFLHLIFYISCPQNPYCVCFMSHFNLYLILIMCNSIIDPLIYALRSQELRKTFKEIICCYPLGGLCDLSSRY
# 168 GPCRs (Homo sapiens, UniProt Q9UKP6), sequence (Q9UKP6 whole entry): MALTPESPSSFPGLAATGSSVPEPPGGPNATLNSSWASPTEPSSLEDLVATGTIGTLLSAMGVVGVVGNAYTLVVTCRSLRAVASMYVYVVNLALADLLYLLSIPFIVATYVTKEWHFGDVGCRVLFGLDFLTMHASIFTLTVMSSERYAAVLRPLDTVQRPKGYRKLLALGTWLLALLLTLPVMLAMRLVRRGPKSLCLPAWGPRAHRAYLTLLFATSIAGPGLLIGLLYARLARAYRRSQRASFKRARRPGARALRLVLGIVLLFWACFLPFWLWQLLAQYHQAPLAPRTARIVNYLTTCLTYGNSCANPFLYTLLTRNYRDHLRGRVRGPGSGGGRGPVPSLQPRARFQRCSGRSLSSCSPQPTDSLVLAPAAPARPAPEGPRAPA
# 168 GPCRs (Homo sapiens, UniProt P51685), sequence (P51685 whole entry): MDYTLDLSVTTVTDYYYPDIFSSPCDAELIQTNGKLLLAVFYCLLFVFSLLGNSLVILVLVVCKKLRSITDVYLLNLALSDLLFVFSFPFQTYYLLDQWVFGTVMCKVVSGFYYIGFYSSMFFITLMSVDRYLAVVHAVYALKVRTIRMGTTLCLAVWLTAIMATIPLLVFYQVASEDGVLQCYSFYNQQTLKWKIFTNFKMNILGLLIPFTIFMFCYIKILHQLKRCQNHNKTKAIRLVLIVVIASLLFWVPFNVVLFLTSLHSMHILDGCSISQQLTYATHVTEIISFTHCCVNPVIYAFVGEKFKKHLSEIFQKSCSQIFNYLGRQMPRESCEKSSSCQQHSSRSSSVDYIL
# 168 GPCRs (Homo sapiens, UniProt P35346), sequence (P35346 whole entry): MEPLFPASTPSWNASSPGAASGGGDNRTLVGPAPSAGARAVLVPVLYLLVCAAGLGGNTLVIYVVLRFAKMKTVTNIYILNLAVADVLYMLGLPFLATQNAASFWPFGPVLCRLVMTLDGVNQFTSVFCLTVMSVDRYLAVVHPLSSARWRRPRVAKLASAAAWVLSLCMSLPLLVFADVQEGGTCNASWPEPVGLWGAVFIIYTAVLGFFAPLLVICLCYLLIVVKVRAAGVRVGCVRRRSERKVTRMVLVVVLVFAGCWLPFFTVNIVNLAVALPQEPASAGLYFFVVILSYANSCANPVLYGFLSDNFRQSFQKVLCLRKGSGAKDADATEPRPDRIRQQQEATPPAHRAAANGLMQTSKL
# 168 GPCRs (Homo sapiens, UniProt P30556), sequence (P30556 whole entry): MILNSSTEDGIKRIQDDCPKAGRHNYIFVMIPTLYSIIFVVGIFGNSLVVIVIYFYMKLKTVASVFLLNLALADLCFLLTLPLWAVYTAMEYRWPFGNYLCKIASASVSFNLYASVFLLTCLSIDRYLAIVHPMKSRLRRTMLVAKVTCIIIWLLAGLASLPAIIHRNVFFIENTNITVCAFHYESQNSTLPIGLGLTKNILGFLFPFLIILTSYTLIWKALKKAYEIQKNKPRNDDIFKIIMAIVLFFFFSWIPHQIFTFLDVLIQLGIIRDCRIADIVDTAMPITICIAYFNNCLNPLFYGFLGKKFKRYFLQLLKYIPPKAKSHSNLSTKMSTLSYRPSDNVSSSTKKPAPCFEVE
# 168 GPCRs (Homo sapiens, UniProt P28336), sequence (P28336 whole entry): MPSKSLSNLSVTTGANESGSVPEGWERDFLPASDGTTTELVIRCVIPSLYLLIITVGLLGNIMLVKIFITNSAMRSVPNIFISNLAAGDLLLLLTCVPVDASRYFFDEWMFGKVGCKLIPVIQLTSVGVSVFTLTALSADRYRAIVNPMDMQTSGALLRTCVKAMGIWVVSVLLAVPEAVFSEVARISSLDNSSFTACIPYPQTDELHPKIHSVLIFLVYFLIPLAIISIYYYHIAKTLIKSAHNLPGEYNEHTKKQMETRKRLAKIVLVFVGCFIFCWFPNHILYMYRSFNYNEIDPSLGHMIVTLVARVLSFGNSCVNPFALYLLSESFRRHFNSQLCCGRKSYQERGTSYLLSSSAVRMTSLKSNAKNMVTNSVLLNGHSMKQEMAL
smiles,measurement,setting,value
"CNC(C)C(=O)c1ccc2c(c1)OCO2 (stereo not shown) [methylone, 3,4-methylenedioxy-N-methylcathinone]",activity at 10 µM,"[1]; P2RY2, Antagonist mode, 10 uM",1.8%
same,activity at 1 µM,"[1]; P2RY2, Antagonist, 1 uM",5.4%
same,activity at 10 µM,"[2]; Antagonist mode, 10 uM",-9.3%
same,activity at 1 µM,"[2]; Antagonist, 1 uM",-6.7%
same,activity at 10 µM,"[3]; SSTR5, Antagonist mode, 10 uM",5.7%
same,activity at 1 µM,"[3]; SSTR5, Antagonist, 1 uM",14.7%
same,activity at 10 µM,"[4]; Antagonist mode, 10 uM",-19.7%
same,activity at 1 µM,"[4]; Antagonist, 1 uM",-5.5%
same,activity at 1 µM,[5]; 1 uM,4.7%
same,activity at 10 µM,[5]; 10 uM,-0.3%
same,activity at 10 µM,"[6]; Antagonist mode, 10 uM",13.2%
same,activity at 1 µM,"[6]; Antagonist, 1 uM",10.3%
same,activity at 10 µM,"[7]; HRH4, Antagonist mode, 10 uM",-14%
same,activity at 1 µM,"[7]; HRH4, Antagonist, 1 uM",-11.6%
same,activity at 1 µM,[8]; 1 uM,3.3%
same,activity at 10 µM,[8]; 10 uM,-1.4%
same,activity at 10 µM,"[9]; Antagonist mode, 10 uM",-14%
same,activity at 1 µM,"[9]; Antagonist, 1 uM",-5.2%
same,activity at 10 µM,"[10]; F2RL3, Antagonist mode, 10 uM",-6.9%
same,activity at 1 µM,"[10]; F2RL3, Antagonist, 1 uM",-11.3%
same,activity at 10 µM,"[11]; Antagonist mode, 10 uM",-8.4%
same,activity at 1 µM,"[11]; Antagonist, 1 uM",-11.8%
same,activity at 10 µM,"[12]; Antagonist mode, 10 uM",-20.2%
same,activity at 1 µM,"[12]; Antagonist, 1 uM",-16.5%
same,activity at 10 µM,"[13]; MRGPRX1, Antagonist mode, 10 uM",-10.2%
same,activity at 1 µM,"[13]; MRGPRX1, Antagonist, 1 uM",-6.5%
same,activity at 10 µM,"[14]; UTR2, Antagonist mode, 10 uM",4.2%
same,activity at 1 µM,"[14]; UTR2, Antagonist, 1 uM",-2.1%
same,activity at 1 µM,[15]; 1 uM,10.2%
same,activity at 10 µM,[15]; 10 uM,6.7%
same,activity at 10 µM,"[16]; EDG1, Antagonist mode, 10 uM",10.5%
same,activity at 1 µM,"[16]; EDG1, Antagonist, 1 uM",12.4%
same,activity at 10 µM,"[17]; DRD1, Antagonist mode, 10 uM",7.8%
same,activity at 1 µM,"[17]; DRD1, Antagonist, 1 uM",6%
